In ChEMBL document CHEMBL1136595, “Oximino-piperidino-piperidine-based CCR5 antagonists. Part 2: synthesis, SAR and biological evaluation of symmetrical heteroaryl carboxamides” (Bioorg Med Chem Lett, 2003) one finds Ki, AUC and IC50 data, which are given here for 23 compounds.

Data set [1] has as its target C-C chemokine receptor type 5 (Homo sapiens, UniProt P51681). Description: Inhibition of [125I]RANTES binding to CCR5 receptor.
A short description of data set [2]: Area under curve after peroral administration at 10 mg/kg in rat for 0-6 h. Format: ADME, organism-based. Details: time < 6 hr, dose 10 mg/kg, route oral. The conditions noted are these: in vivo, po.
Data set [3] has as its system Human immunodeficiency virus 1. Description: Inhibition of HIV-1 (ADA) entry into U-87 (human glioblastoma) cells. The data set is classed as functional, organism-based. The conditions noted are these: Human immunodeficiency virus 1, U-87 MG.

Chain of C-C chemokine receptor type 5 (P51681 whole entry): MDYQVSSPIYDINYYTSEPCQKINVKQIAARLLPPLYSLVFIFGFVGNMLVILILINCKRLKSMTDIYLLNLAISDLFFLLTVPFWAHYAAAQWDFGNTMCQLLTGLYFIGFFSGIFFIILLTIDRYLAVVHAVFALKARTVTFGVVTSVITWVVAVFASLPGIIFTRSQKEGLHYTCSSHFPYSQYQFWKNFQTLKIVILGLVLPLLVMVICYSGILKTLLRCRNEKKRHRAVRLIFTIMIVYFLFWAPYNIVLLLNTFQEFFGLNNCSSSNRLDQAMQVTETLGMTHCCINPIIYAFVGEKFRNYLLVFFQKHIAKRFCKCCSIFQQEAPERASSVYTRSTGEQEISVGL

As usually defined, the Ki is a dissociation constant, usually derived from enzyme kinetics or from competition with a known ligand. A high value points to lower affinity. With `CCO/N=C(/c1ccc(Br)cc1)C1CCN(C2(C)CCN(C(=O)c3c(C)nc(C4CC4)nc3C)CC2)CC1`, in data set [1], the affinity, expressed as Ki, was 25 nM.

Turning to `CCO/N=C(/c1ccc(Br)cc1)C1CCN(C2(C)CCN(C(=O)c3c(C)nc(C(C)C)nc3C)CC2)CC1`, the Ki in data set [1] turned out to be 43 nM.

The compound `CCO/N=C(/c1ccc(Br)cc1)C1CCN(C2(C)CCN(C(=O)c3c(C)nc(NC(C)=O)nc3C)CC2)CC1` yielded a Ki in data set [1] of 60 nM.

Usually AUC stands for concentration integrated over time. Lower therefore signals low exposure. As a reminder, the IC50 is the concentration that inhibits the measured activity by half. Higher therefore signals weaker potency. Compound `CCCO/N=C(/c1ccc(Br)cc1)C1CCN(C2(C)CCN(C(=O)c3c(C)ncnc3C)CC2)CC1` came in with a Ki in data set [1] of 2 nM. For the same compound, the AUC at 6 h in data set [2] is 1600 ng·h/mL. Moreover, the IC50 in data set [3] came to 0.89 nM.

`CCO/N=C(/c1ccc(Br)cc1)C1CCN(C2(C)CCN(C(=O)c3c(C)nc(SC)nc3C)CC2)CC1`: in data set [1], affinity was put at a Ki of 1.3 nM. The same compound showed an AUC at 6 h in data set [2] of 400 ng·h/mL.

In data set [1], `CCO/N=C(/c1ccc(Br)cc1)C1CCN(C2(C)CCN(C(=O)c3c(C)nc(C(F)(F)F)nc3C)CC2)CC1` gave a Ki of 3.2 nM. The compound also yielded an AUC at 6 h in data set [2] of 2000 ng·h/mL. The IC50 in data set [3] is 0.26 nM.

Take `Cc1ncnc(C)c1C(=O)N1CCC(C)(N2CCC(/C(=N\OC(C)C)c3ccc(Br)cc3)CC2)CC1`: the Ki in data set [1] was found to be 3.3 nM. In addition, in data set [2], the AUC at 6 h was found to be 2400 ng·h/mL. The same compound had an IC50 in data set [3] of 0.28 nM.

In turn, `Cc1ncnc(C)c1C(=O)N1CCC(C)(N2CCC(/C(=N\OCC(F)(F)F)c3ccc(Br)cc3)CC2)CC1` yielded a Ki in data set [1] of 14 nM. This compound also came in with an AUC at 6 h in data set [2] of 6900 ng·h/mL. In addition, in data set [3], half-maximal inhibition (IC50) required 3.8 nM.

In data set [1], `CCO/N=C(/c1ccc(Br)cc1)C1CCN(C2(C)CCN(C(=O)c3c(C)nc(N)nc3C)CC2)CC1` displayed a Ki of 5.7 nM. Further, the AUC at 6 h in data set [2] turned out to be 3100 ng·h/mL. The IC50 in data set [3] turned out to be 0.35 nM.

In turn, `CO/N=C(\c1ccc(Br)cc1)C1CCN(C2(C)CCN(C(=O)c3c(C)ncnc3C)CC2)CC1` yielded an inhibition constant (Ki) in data set [1] of 4.7 nM. In data set [2], the AUC at 6 h came out at 4100 ng·h/mL. Moreover, the IC50 in data set [3] came out at 1.83 nM.

In data set [1], `CCO/N=C(\c1ccc(Br)cc1)C1CCN(C2(C)CCN(C(=O)c3c(C)c[n+]([O-])cc3C)CC2)CC1` returned an inhibition constant Ki of 8.8 nM. For the same compound, in data set [2], the AUC at 6 h turned out to be 1600 ng·h/mL. It took 0.4 nM to reach half-maximal inhibition in data set [3] (IC50).

In data set [1], `CCO/N=C(\c1ccc(Br)cc1)C1CCN(C2(C)CCN(C(=O)c3c(Br)c[n+]([O-])cc3Br)CC2)CC1` had a Ki of 0.7 nM. This compound showed an AUC at 6 h in data set [2] of 4400 ng·h/mL. In data set [3], this compound registered an IC50 of 1.24 nM.

`CCO/N=C(\c1ccc(Br)cc1)C1CCN(C2(C)CCN(C(=O)c3c(C)cncc3C)CC2)CC1` gave a Ki in data set [1] of 2.3 nM. The compound further had an AUC at 6 h in data set [2] of 1300 ng·h/mL.

Regarding `CCO/N=C(\c1ccc(Br)cc1)C1CCN(C2(C)CCN(C(=O)c3c(Cl)c[n+]([O-])cc3Cl)CC2)CC1`, in data set [1], affinity was put at a Ki of 1.2 nM. This compound displayed an AUC at 6 h in data set [2] of 3900 ng·h/mL. This compound returned an IC50 in data set [3] of 0.15 nM.

As for `CCO/N=C(/c1ccc(Br)cc1)C1CCN(C2(C)CCN(C(=O)c3c(C)nc(C)nc3C)CC2)CC1`, affinity in data set [1] was put at a Ki of 2.1 nM. Also, the exposure (AUC) at 6 h in data set [2] came to 2700 ng·h/mL. Half-maximal inhibition in data set [3] (IC50) required 0.93 nM.

With `Cc1ncnc(C)c1C(=O)N1CCC(C)(N2CCC(/C(=N\OCC(C)C)c3ccc(Br)cc3)CC2)CC1`, the Ki in data set [1] is 8.1 nM. The compound further came in with an AUC at 6 h in data set [2] of 600 ng·h/mL. In data set [3], this compound had an IC50 of 1.17 nM.

In data set [1], `CCO/N=C(/c1ccc(Br)cc1)C1CCN(C2(C)CCN(C(=O)c3c(C)nc(NS(C)(=O)=O)nc3C)CC2)CC1` had a Ki of 315 nM.

On to `CCO/N=C(/c1ccc(Br)cc1)C1CCN(C2(C)CCN(C(=O)c3c(C)nc(OC)nc3C)CC2)CC1`, for which the affinity in data set [1] corresponds to a Ki of 5.3 nM. This compound gave an exposure (AUC) at 6 h in data set [2] of 1800 ng·h/mL. The IC50 in data set [3] was found to be 0.13 nM.

For the compound `Cc1ncnc(C)c1C(=O)N1CCC(C)(N2CCC(/C(=N\OCC3CC3)c3ccc(Br)cc3)CC2)CC1`, the Ki in data set [1] worked out at 11 nM. Further, the AUC at 6 h in data set [2] was determined as 3700 ng·h/mL.

Consider `CCO/N=C(\c1ccc(Br)cc1)C1CCN(C2(C)CCN(C(=O)c3c(Br)cncc3Br)CC2)CC1`, for which the AUC at 6 h in data set [2] amounted to 500 ng·h/mL. The compound also displayed an IC50 in data set [3] of 1.04 nM.

`CCO/N=C(\c1ccc(Br)cc1)C1CCN(C2(C)CCN(C(=O)c3c(Cl)cncc3Cl)CC2)CC1` showed an AUC at 6 h in data set [2] of 500 ng·h/mL. For the same compound, the IC50 in data set [3] turned out to be 0.69 nM.

In data set [1], `CCO/N=C(\c1ccc(Br)cc1)C1CCN(C2(C)CCN(C(=O)c3c(C)ncnc3C)CC2)CC1` yielded a Ki of 2.2 nM. The same compound returned an AUC at 6 h in data set [2] of 3100 ng·h/mL. In data set [3], 0.36 nM corresponded to half-maximal inhibition (IC50).

The compound `COC[C@@H](c1ccc(C(F)(F)F)cc1)N1CCN(C2(C)CCN(C(=O)c3c(C)ncnc3C)CC2)C[C@@H]1C` [VICRIVIROC] displayed an AUC at 6 h in data set [2] of 6500 ng·h/mL. The same compound returned an IC50 in data set [3] of 0.6 nM.
